# In patent US10815244B2, “Isoidide derivatives and methods of making and using same” (Rutgers, the State University of New Jersey, priority 2015, dated 2020):
# pIC50: −log10 of the molar value.
# Tests used:
# EGFR kinase = EGFR kinase (Homo sapiens (Human), UniProt P00533); experiment: EGFR kinase activity, luminescent ATP/ADP detection assay; assay type: biochemical; settings: purified EGFR kinase, 10 min incubation, luminescence ADP detection
# Description: Example RR: EGFR as a Drug Target Assay Conditions
# The IC50s of the compounds on EGFR activity were determined using the Luminescent ATP/ADP detection assay system. Briefly, the assay method measures ADP formed from EGFR kinase activity using luminescence derived from ATP-Luciferase detection system. Purified EGFR kinase was incubated with different concentrations of test compound in the kinase reaction buffer for 10 min. The reaction was stopped by depleting the unused ATP in the kinase reaction buffer using the depletion buffer for 40 min. The levels of ADP generated during the kinase reaction was detected by measuring the luminescence using the Luciferase system.
# [1] = system: TNF-α (LPS-stimulated PBMCs); experiment: TNF-α expression in LPS-stimulated PBMCs in the presence of MIF inhibitors (ELISA); assay type: cell-based; settings: Homo sapiens, PBMC, LPS 10 ng/ml and LPS+MIF, ELISA of supernatant
# Description: (§1) Example QQ: Macrophage Migration Inhibitory Factor (MIF) as a Drug Target Assay Conditions
# (§2) a) PBMC Isolation: • Heparinized blood (10 ml) was diluted with equal volume of phosphate buffer saline (PBS). To the Ficoll solution (5 ml) add 5 ml of blood:PBS mixture and centrifuge at 1600 rpm for 30 minutes. Take the buffy coat and wash with PBS at 1200 rpm for 5 minutes (twice). After two wash with PBS, the PBMCs were washed with RPMI medium. The PBMC were counted and plated in 96 well plates (1×10^6 cells/well).
# (§3) b) Expression of TNF-α and […] in PBMCs in the Presence of MIF Inhibitors: • After overnight incubation, the cells were treated with different concentration of MIF inhibitors. After 6 hr, cells were treated with LPS (10 ng/ml) and LPS+MIF combination (10 ng/ml) and further incubated for overnight. PBMCs treated with 10 ng/ml of LPS and MIF in the presence of different concentrations of test compounds. After the incubation period, the supernatant were collected and human TNF-α and IL-1β were determined using the ELISA kits (R&D Systems).
# [2] = system: IL-1β (LPS-stimulated PBMCs); experiment: IL-1β expression in LPS-stimulated PBMCs in the presence of MIF inhibitors (ELISA); assay type: cell-based; settings: Homo sapiens, PBMC, LPS 10 ng/ml and LPS+MIF, ELISA of supernatant
# Description: as §1, §2, §3
# Sequence of EGFR kinase (P00533 25-1210): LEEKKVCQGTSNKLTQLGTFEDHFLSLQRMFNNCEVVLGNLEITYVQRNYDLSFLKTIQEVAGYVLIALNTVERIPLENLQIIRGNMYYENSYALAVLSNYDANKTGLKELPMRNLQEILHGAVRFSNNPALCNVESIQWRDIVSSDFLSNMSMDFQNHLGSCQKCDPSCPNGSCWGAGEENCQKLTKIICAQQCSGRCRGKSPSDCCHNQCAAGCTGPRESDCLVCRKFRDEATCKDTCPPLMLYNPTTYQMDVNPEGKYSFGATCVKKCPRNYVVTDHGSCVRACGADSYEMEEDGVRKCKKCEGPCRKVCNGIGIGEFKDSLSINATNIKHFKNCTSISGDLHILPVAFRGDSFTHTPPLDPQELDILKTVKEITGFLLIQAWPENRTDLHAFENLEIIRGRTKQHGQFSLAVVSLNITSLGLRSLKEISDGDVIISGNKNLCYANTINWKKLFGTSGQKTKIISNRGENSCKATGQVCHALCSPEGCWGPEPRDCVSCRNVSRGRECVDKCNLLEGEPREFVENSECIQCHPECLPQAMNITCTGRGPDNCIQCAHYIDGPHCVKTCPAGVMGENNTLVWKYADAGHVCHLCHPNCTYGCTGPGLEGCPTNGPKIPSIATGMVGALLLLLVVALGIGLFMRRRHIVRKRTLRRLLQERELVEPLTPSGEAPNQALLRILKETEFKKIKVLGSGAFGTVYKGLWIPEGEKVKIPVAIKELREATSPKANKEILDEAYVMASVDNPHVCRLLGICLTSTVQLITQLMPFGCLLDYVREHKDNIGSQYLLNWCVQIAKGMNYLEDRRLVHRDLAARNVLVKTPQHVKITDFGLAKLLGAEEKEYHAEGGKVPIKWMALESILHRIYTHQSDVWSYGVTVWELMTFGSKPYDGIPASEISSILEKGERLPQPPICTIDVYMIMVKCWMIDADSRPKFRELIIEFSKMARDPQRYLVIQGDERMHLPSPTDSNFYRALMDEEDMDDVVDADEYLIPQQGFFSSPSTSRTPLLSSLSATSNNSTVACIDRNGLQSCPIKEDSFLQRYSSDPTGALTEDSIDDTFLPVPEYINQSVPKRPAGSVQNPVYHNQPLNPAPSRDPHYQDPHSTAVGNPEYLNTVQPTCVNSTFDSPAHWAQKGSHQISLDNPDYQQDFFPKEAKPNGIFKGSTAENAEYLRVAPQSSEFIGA
Compound,pIC50 (EGFR kinase),pIC50 [1],pIC50 [2]
"COc1cc2ncnc(Nc3ccc(O[C@H]4CO[C@H]5[C@@H]4OC[C@@H]5O)c(Cl)c3)c2cc1OC [Example T, (3S,3aR,6S,6aR)-6-[2-chloro-4-[(6,7-dimethoxyquinazolin-4-yl)amino]phenoxy]-2,3,3a,5,6,6a-hexahydrofuro[3,2-b]furan-3-ol]",< 7.00,,
"N#Cc1c(O[C@H]2CO[C@H]3[C@@H]2OC[C@@H]3O)c2ccccc2n(Cc2ccc(F)cc2)c1=O [Example N, 4-[[(3S,3aR,6S,6aR)-3-hydroxy-2,3,3a,5,6,6a-hexahydrofuro[3,2-b]furan-6-yl]oxy]-1-[(4-fluorophenyl)methyl]-2-oxo-1,2-dihydroquinoline-3-carbonitrile]",,< 7.00,< 5.00
"CCOC(=O)c1c(O[C@H]2CO[C@H]3[C@@H]2OC[C@@H]3O)c2ccccc2n(Cc2ccc(F)cc2)c1=O [Example I, ethyl 4-[[(3S,3aR,6S,6aR)-3-hydroxy-2,3,3a,5,6,6a-hexahydrofuro[3,2-b]furan-6-yl]oxy]-1-[(4-fluorophenyl)methyl]-2-oxo-1,2-dihydroquinoline-3-carboxylate]",,< 6.30,< 6.30
"CCOC(=O)c1c(O[C@H]2CO[C@H]3[C@@H]2OC[C@@H]3OC(=O)CCl)c2ccccc2n(Cc2ccccc2)c1=O [Example G, ethyl 4-[[(3S,3aR,6S,6aR)-6-(2-chloroacetyl)oxy-2,3,3a,5,6,6a-hexahydrofuro[3,2-b]furan-3-yl]oxy]-1-benzyl-2-oxo-1,2-dihydroquinoline-3-carboxylate]",,< 7.00,< 7.00
"CCOC(=O)c1c(O[C@H]2CO[C@H]3[C@@H]2OC[C@@H]3OC(C)=O)c2ccccc2n(Cc2ccccc2)c1=O [Example F, ethyl 4-[[(3S,3aR,6S,6aR)-6-acetoxy-2,3,3a,5,6,6a-hexahydrofuro[3,2-b]furan-3-yl]oxy]-1-benzyl-2-oxo-1,2-dihydroquinoline-3-carboxylate]",,< 5.00,< 5.00
"O[C@H]1CO[C@H]2[C@@H]1OC[C@@H]2Oc1ccc(Nc2ncnc3ccsc23)cc1Cl [Example U, (3S,3aR,6S,6aR)-6-[2-chloro-4-(thieno[3,2-d]pyrimidin-4-ylamino)phenoxy]-2,3,3a,5,6,6a-hexahydrofuro[3,2-b]furan-3-ol]",< 7.00,,
"CCOC(=O)c1c(O[C@H]2CO[C@@H]3C=CO[C@H]23)c2ccccc2n(Cc2ccccc2)c1=O [Example H, ethyl 4-[[(3S,3aS,6aR)-2,3,3a,6a-tetrahydrofuro[3,2-b]furan-3-yl]oxy]-1-benzyl-2-oxo-1,2-dihydroquinoline-3-carboxylate]",,< 5.00,< 5.00
"COc1cc2ncnc(Nc3ccc(O[C@H]4CO[C@H]5[C@@H]4OC[C@@H]5OCc4ccccc4)c(Cl)c3)c2cc1OC [Example AA, N-[4-[[(3S,3aR,6S,6aR)-3-benzyloxy-2,3,3a,5,6,6a-hexahydrofuro[3,2-b]furan-6-yl]oxy]-3-chloro-phenyl]-6,7-dimethoxy-quinazolin-4-amine]",< 7.00,,
"CC(=O)O[C@H]1CO[C@H]2[C@@H]1OC[C@@H]2Oc1ccc(Nc2ncnc3ccsc23)cc1Cl [Example CC, [(3S,3aR,6S,6aR)-3-[2-chloro-4-(thieno[3,2-d]pyrimidin-4-ylamino)phenoxy]-2,3,3a,5,6,6a-hexahydrofuro[3,2-b]furan-6-yl] acetate]",< 6.30,,
"CCOC(=O)c1c(O[C@H]2CO[C@H]3[C@@H]2OC[C@@H]3OC(C)=O)c2ccccc2n(CC)c1=O [Example B, ethyl 4-[[(3S,3aR,6S,6aR)-6-acetoxy-2,3,3a,5,6,6a-hexahydrofuro[3,2-b]furan-3-yl]oxy]-1-ethyl-2-oxo-1,2-dihydroquinoline-3-carboxylate]",,< 5.00,< 5.00
"N#Cc1c(Nc2ccc(O[C@H]3CO[C@H]4[C@@H]3OC[C@@H]4O)c(Cl)c2)c2ccccc2n(Cc2ccccc2)c1=O [Example R, 4-[4-[[(3S,3aR,6S,6aR)-3-hydroxy-2,3,3a,5,6,6a-hexahydrofuro[3,2-b]furan-6-yl]oxy]-3-chloro-anilino]-1-benzyl-2-oxo-1,2-dihydroquinoline-3-carbonitrile]",,< 7.00,< 7.00
"N#Cc1c(O[C@H]2CO[C@H]3[C@@H]2OC[C@@H]3OC(=O)CCl)c2ccccc2n(Cc2ccc(F)cc2)c1=O [Example Q, [(3S,3aR,6S,6aR)-3-[[3-cyano-1-[(4-fluorophenyl)methyl]-2-oxo-4-quinolyl]oxy]-2,3,3a,5,6,6a-hexahydrofuro[3,2-b]furan-6-yl] 2-chloroacetate]",,< 7.00,< 7.00
"CCOC(=O)c1c(O[C@H]2CO[C@H]3[C@@H]2OC[C@@H]3OC(=O)CCl)c2ccccc2n(Cc2ccc(F)cc2)c1=O [Example J, ethyl 4-[[(3S,3aR,6S,6aR)-6-(2-chloroacetyl)oxy-2,3,3a,5,6,6a-hexahydrofuro[3,2-b]furan-3-yl]oxy]-1-[(4-fluorophenyl)methyl]-2-oxo-1,2-dihydroquinoline-3-carboxylate]",,< 7.00,< 7.00
"CCOC(=O)c1c(Nc2ccc(O[C@H]3CO[C@H]4[C@@H]3OC[C@@H]4O)c(Cl)c2)c2ccccc2n(Cc2ccccc2)c1=O [Example S, ethyl 4-[4-[[(3S,3aR,6S,6aR)-3-hydroxy-2,3,3a,5,6,6a-hexahydrofuro[3,2-b]furan-6-yl]oxy]-3-chloro-anilino]-1-benzyl-2-oxo-1,2-dihydroquinoline-3-carboxylate]",,< 6.30,< 6.30
"CCOC(=O)c1c(O[C@H]2CO[C@H]3[C@@H]2OC[C@@H]3OC(=O)CCl)c2ccccc2n(CC)c1=O [Example C, ethyl 4-[[(3S,3aR,6S,6aR)-6-(2-chloroacetyl)oxy-2,3,3a,5,6,6a-hexahydrofuro[3,2-b]furan-3-yl]oxy]-1-ethyl-2-oxo-1,2-dihydroquinoline-3-carboxylate]",,< 6.30,< 6.30
"N#Cc1c(O[C@H]2CO[C@H]3[C@@H]2OC[C@@H]3OC(=O)c2ccccc2)c2ccccc2n(Cc2ccc(F)cc2)c1=O [Example P, [(3S,3aR,6S,6aR)-3-[[3-cyano-1-[(4-fluorophenyl)methyl]-2-oxo-4-quinolyl]oxy]-2,3,3a,5,6,6a-hexahydrofuro[3,2-b]furan-6-yl] benzoate]",,< 5.00,< 5.00
"N#Cc1c(O[C@H]2CO[C@H]3[C@@H]2OC[C@@H]3O)c2ccccc2n(Cc2ccccc2)c1=O [Example K, 4-[[(3S,3aR,6S,6aR)-3-hydroxy-2,3,3a,5,6,6a-hexahydrofuro[3,2-b]furan-6-yl]oxy]-1-benzyl-2-oxo-1,2-dihydroquinoline-3-carbonitrile]",,< 7.00,< 7.00
"CC(=O)O[C@H]1CO[C@H]2[C@@H]1OC[C@@H]2Oc1c(C#N)c(=O)n(Cc2ccccc2)c2ccccc12 [Example L, [(3S,3aR,6S,6aR)-3-[(1-benzyl-3-cyano-2-oxo-4-quinolyl)oxy]-2,3,3a,5,6,6a-hexahydrofuro[3,2-b]furan-6-yl] acetate]",,< 6.00,< 6.00
"CCOC(=O)c1c(O[C@H]2CO[C@@H]3C=CO[C@H]23)c2ccccc2n(CC)c1=O [Example D, ethyl 4-[[(3S,3aS,6aR)-2,3,3a,6a-tetrahydrofuro[3,2-b]furan-3-yl]oxy]-1-ethyl-2-oxo-1,2-dihydroquinoline-3-carboxylate]",,< 5.00,< 5.00
"N#Cc1c(O[C@H]2CO[C@H]3[C@@H]2OC[C@@H]3OC(=O)CCl)c2ccccc2n(Cc2ccccc2)c1=O [Example M, [(3S,3aR,6S,6aR)-3-[(1-benzyl-3-cyano-2-oxo-4-quinolyl)oxy]-2,3,3a,5,6,6a-hexahydrofuro[3,2-b]furan-6-yl] 2-chloroacetate]",,< 6.30,< 6.30
"CCOC(=O)c1c(O[C@H]2CO[C@H]3[C@@H]2OC[C@@H]3O)c2ccccc2n(CC)c1=O [Example A, ethyl 4-[[(3S,3aR,6S,6aR)-3-hydroxy-2,3,3a,5,6,6a-hexahydrofuro[3,2-b]furan-6-yl]oxy]-1-ethyl-2-oxo-1,2-dihydroquinoline-3-carboxylate]",,< 6.00,< 6.00
"CC(=O)O[C@H]1CO[C@H]2[C@@H]1OC[C@@H]2Oc1c(C#N)c(=O)n(Cc2ccc(F)cc2)c2ccccc12 [Example O, [(3S,3aR,6S,6aR)-3-[[3-cyano-1-[(4-fluorophenyl)methyl]-2-oxo-4-quinolyl]oxy]-2,3,3a,5,6,6a-hexahydrofuro[3,2-b]furan-6-yl] acetate]",,< 7.00,< 5.00
"CCOC(=O)c1c(O[C@H]2CO[C@H]3[C@@H]2OC[C@@H]3O)c2ccccc2n(Cc2ccccc2)c1=O [Example E, ethyl 4-[[(3S,3aR,6S,6aR)-3-hydroxy-2,3,3a,5,6,6a-hexahydrofuro[3,2-b]furan-6-yl]oxy]-1-benzyl-2-oxo-1,2-dihydroquinoline-3-carboxylate]",,< 6.30,< 6.30
